Test results taken from patent publication US8598228B2, “Cinnamic acid ascorbates” (Merck Patent GmbH, priority 2009, dated 2013).

Experiments:
[1] = cited from earlier work; for specific absorbance at the absorbance maximum (ε): MeOH
[2] = UV absorption maximum of product; type: physicochemical
Procedure: 20 g of (E)-3-(2,4,5-trimethoxyphenyl)acrylic acid (84 mmol; 1 eq.) are dissolved in 100 ml of dimethylformamide in an argon-flushed three-necked flask, and 11.1 g of diisopropylcarbodiimide (88.1 mmol, 1.05 eq.) are added. After 30 min, ascorbic acid (22.2 g, 126 mmol; 1.5 eq.) dissolved in 45 ml of dimethylformamide is added dropwise. After 30 min at 0° C., the mixture is stirred at room temperature for a further 6 hours. The reaction solution is evaporated to dryness, suspended in ethyl acetate/hexane 1:1 and filtered, and the product is precipitated as a pale-yellow solid by addition of hexane (λmax=354 nm).

λmax [2] [nm]	SMILES	specific absorbance at the absorbance maximum (ε) [1]	λmax(MeOH) [1] [nm]
–	CCCCC(CC)COC(=O)/C=C\c1ccc(OC)cc1 (stereo not drawn) [cis-EHMC]	13,500	304
–	CCCCC(CC)COC(=O)/C=C/c1ccc(OC)cc1 (stereo not drawn) [trans-EHMC]	24,550	309
354	COc1cc(OC)c(OC)cc1/C=C/C(=O)OC[C@@H](O)[C@H]1OC(=O)C(O)=C1O [Example 4, (R)-2-((R)-3,4-dihydroxy-5-oxo-2,5-dihydrofuran-2-yl)-2-hydroxyethyl (E)-3-(2,4,5-trimethoxyphenyl)acrylate]	–	–
